Results on 78 compounds are retold here after PubChem BioAssay AID1117328 (Cheminformatics & Chemogenomics Research Group (CCRG), …, 2015).

The source made the active and inactive calls. How the calls were made is not given here.

For this test, the target named is Ribosomal protein S6 kinase beta-1 (Homo sapiens) (UniProt P23443). The test is described as follows: p70S6K1 kinase inhibitors, biochemical, LANCE Ultra TR-FRET (AID 1117328). The conditions noted are these: LANCE Ultra TR-FRET kinase assay, at 20 µM (top of the series).
Ribosomal protein S6 kinase beta-1 (Homo sapiens), sequence (P23443 whole entry, looked up): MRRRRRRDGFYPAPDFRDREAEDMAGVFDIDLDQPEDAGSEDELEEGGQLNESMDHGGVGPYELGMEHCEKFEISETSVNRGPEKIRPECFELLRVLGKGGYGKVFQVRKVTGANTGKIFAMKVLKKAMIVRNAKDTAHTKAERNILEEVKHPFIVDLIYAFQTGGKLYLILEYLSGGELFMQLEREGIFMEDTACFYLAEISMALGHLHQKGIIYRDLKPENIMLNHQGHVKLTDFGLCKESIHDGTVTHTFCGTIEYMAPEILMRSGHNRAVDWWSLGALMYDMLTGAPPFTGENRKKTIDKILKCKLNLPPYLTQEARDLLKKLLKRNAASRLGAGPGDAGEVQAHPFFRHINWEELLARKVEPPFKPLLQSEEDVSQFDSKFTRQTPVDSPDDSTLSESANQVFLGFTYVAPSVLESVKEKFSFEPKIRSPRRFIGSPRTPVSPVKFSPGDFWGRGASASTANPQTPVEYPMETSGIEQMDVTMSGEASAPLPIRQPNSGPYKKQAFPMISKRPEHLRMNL
The term inhibition denotes the relative decrease from the control value, in per cent. As to `Cc1nc(Nc2ncc(C(=O)Nc3c(C)cccc3Cl)s2)cc(N2CCN(CCO)CC2)n1`, the inhibition is 5.32% (inactive).

As for `O=C(Nc1ccc([N+](=O)[O-])cc1Cl)c1cc(Cl)ccc1O`, the inhibition was 49.9% (inactive). Then `CCCCCCCCCCCCCC[N+](C)(C)C`, with 3.96% (inactive); and `O=C(O)c1ccc(-n2nc(-c3ccccc3O)nc2-c2ccccc2O)cc1`, with 0.21% (inactive). Next, `C[C@@]12C(=O)OC(=O)[C@]1(C)C1CCC2O1`: 6.38% (inactive); `CC(C)C[C@H](NC(=O)[C@H](CCc1ccccc1)NC(=O)CN1CCOCC1)C(=O)N[C@@H](Cc1ccccc1)C(=O)N[C@@H](CC(C)C)C(=O)[C@@]1(C)CO1`: -1.98% (inactive). Turning to `COc1cccc2c1C(=O)c1c(O)c3c(c(O)c1C2=O)C[C@@](O)(C(C)=O)C[C@@H]3O[C@H]1C[C@H](N)[C@H](O)[C@H](C)O1`, the inhibition was -19.5% (inactive). Then `COc1ccc2cc1Oc1ccc(cc1)C[C@H]1c3c(cc4c(c3Oc3cc5c(cc3OC)CCN(C)[C@@H]5C2)OCO4)CCN1C`, with -3.96% (inactive); and `C=CC(=O)Nc1cc2c(Nc3ccc(F)c(Cl)c3)ncnc2cc1OCCCN1CCOCC1`, with 10.8% (inactive). Next, `CC(C)(C)C(=O)OCOP(=O)(COCCn1cnc2c(N)ncnc21)OCOC(=O)C(C)(C)C`: -0.94% (inactive); `Nc1nc(=S)c2[nH]cnc2[nH]1`: 3.34% (inactive); `CCCOc1ccc2nc(NC(=O)OC)[nH]c2c1`: -4.03% (inactive). Regarding `COC(=O)Nc1nc2ccc(C(=O)c3cccs3)cc2[nH]1`, the inhibition is -23.9% (inactive). Next, `Cc1cc2c(C(C)C)c(O)c(O)c(C=O)c2c(O)c1-c1c(C)cc2c(C(C)C)c(O)c(O)c(C=O)c2c1O`: -7.01% (inactive); `O=C(CCl)c1ccc(Cl)cc1Cl`: -8.03% (inactive). On to `COc1cc2c(c(OC)c1OC)-c1ccc(OC)c(=O)cc1[C@@H](NC(C)=O)CC2`, for which the inhibition was -2.55% (inactive). Next, `CN1CC[C@H](c2c(O)cc(O)c3c(=O)cc(-c4ccccc4Cl)oc23)[C@H](O)C1`: 48.6% (inactive); `CCCCc1oc2ccccc2c1C(=O)c1cc(I)c(OCCN(CC)CC)c(I)c1`: -4.08% (inactive); `Cc1nc2ccc(CN(C)c3ccc(C(=O)N[C@@H](CCC(=O)O)C(=O)O)s3)cc2c(=O)[nH]1`: 26.6% (inactive). Next, `Cc1ccc([N+](=O)[O-])[c]2c1[O][Hg]2`: 33.5% (inactive); `CC[C@]1(O)C[C@H]2CN(CCc3c([nH]c4ccccc34)[C@@](C(=O)OC)(c3cc4c(cc3OC)N(C=O)[C@H]3[C@@](O)(C(=O)OC)[C@H](OC(C)=O)[C@]5(CC)C=CCN6CC[C@]43[C@@H]65)C2)C1`: 5.42% (inactive).

With `CC[C@@H]([C@H](C)O)n1ncn(-c2ccc(N3CCN(c4ccc(OC[C@@H]5CO[C@@](Cn6cncn6)(c6ccc(F)cc6F)C5)cc4)CC3)cc2)c1=O`, the inhibition is -23% (inactive). Then `[O-][n+]1ccccc1SSc1cccc[n+]1[O-]`, with -10.6% (inactive); and `Oc1c(Cl)cc(Cl)c2cccnc12`, with 8.07% (inactive); and `CC[C@]1(O)C[C@@H]2CN(CCc3c([nH]c4ccccc34)[C@@](C(=O)OC)(c3cc4c(cc3OC)N(C)[C@H]3[C@@](O)(C(=O)OC)[C@H](OC(C)=O)[C@]5(CC)C=CCN6CC[C@]43[C@@H]65)C2)C1`, with -1.14% (inactive). Take `O=c1[nH]c(=O)n([C@H]2C[C@H](O)[C@@H](CO)O2)cc1F`: the inhibition was -6.04% (inactive). Then `CC[C@@]1(O)C(=O)OCc2c1cc1n(c2=O)Cc2c-1nc1ccccc1c2/C=N/OC(C)(C)C`, with -2.02% (inactive); and `CN(C)c1ccc2nc3ccc(=[N+](C)C)cc-3sc2c1`, with -350% (inactive); and `CCCCCCNC(=O)n1cc(F)c(=O)[nH]c1=O`, with -0.86% (inactive).

Regarding `CC(=O)[C@]1(O)Cc2c(O)c3c(c(O)c2[C@@H](O[C@H]2C[C@H](N)[C@H](O)[C@H](C)O2)C1)C(=O)c1ccccc1C3=O`, the inhibition is -128% (inactive). Then `CC(C)C[C@H](NC(=O)[C@H](Cc1ccccc1)NC(=O)c1cnccn1)B(O)O`, with 6.59% (inactive). Then `COC(=O)c1nc(Cl)c(Cl)nc1N`, with 1.07% (inactive); and `CCC1=C[C@@H]2CN(C1)Cc1c([nH]c3ccccc13)[C@@](C(=O)OC)(c1cc3c(cc1OC)N(C)[C@H]1[C@@](O)(C(=O)OC)[C@H](OC(C)=O)[C@]4(CC)C=CCN5CC[C@]31[C@@H]54)C2`, with -0.16% (inactive); and `CCN(CC)CCNC(=O)c1c(C)[nH]c(/C=C2\C(=O)Nc3ccc(F)cc32)c1C`, with 91.7%. Next, `Cc1ccc(Nc2nccc(N(C)c3ccc4c(C)n(C)nc4c3)n2)cc1S(N)(=O)=O`: 5.82% (inactive); `O=C1c2c(O)ccc(O)c2C(=O)c2c(NCCNCCO)ccc(NCCNCCO)c21`: 21.1%. Take `O=C(NOCC1CC1)c1ccc(F)c(F)c1Nc1ccc(I)cc1Cl`: the inhibition is -1.64% (inactive). Next, `O=c1c(-c2ccccc2)c1-c1ccccc1`: 5.11% (inactive); `COc1c(C)c2c(c(O)c1C/C=C(\C)CCC(=O)OCCN1CCOCC1)C(=O)OC2`: 1.51% (inactive); `CCC(C)n1ncn(-c2ccc(N3CCN(c4ccc(OC[C@H]5CO[C@](Cn6cncn6)(c6ccc(Cl)cc6Cl)O5)cc4)CC3)cc2)c1=O` (stereo partly drawn): -9.45% (inactive). On to `COc1cc([C@@H]2c3cc4c(cc3[C@H](O)[C@H]3COC(=O)[C@H]23)OCO4)cc(OC)c1OC`, for which the inhibition was 3.8% (inactive).

With `CCN(CC)CCOc1ccc(/C(=C(\Cl)c2ccccc2)c2ccccc2)cc1`, the inhibition was 7.41% (inactive). `CNC(=O)c1ccccc1Sc1ccc2c(/C=C/c3ccccn3)n[nH]c2c1`: the inhibition is -17.9% (inactive). With `CCN(CC)CCNc1ccc(CO)c2sc3ccccc3c(=O)c12`, the inhibition was 37.2%.

With `COC(=O)Nc1nc2ccc(C(=O)C3CC3)cc2[nH]1`, the inhibition is 12.7% (inactive). Then `S=c1nc[nH]c2nc[nH]c12`, with 22.2% (inactive); and `COc1ccc(-c2nc3ccc(C4=NNC(=O)CC4C)cc3[nH]2)cc1` (stereo not drawn), with -32.5% (inactive).

On to `CCCCC1C(=O)N(c2ccccc2)N(c2ccc(O)cc2)C1=O` (stereo not drawn), for which the inhibition was 0.82% (inactive).

Regarding `O=[N+]([O-])c1ccc(O)c2ncccc12`, the inhibition was 37.6% (inactive). `COc1cc(NCc2ccc3nc(N)nc(N)c3c2C)cc(OC)c1OC`: the inhibition is 38% (inactive).

Regarding `C[n+]1c2cc(N)ccc2cc2ccc(N)cc21` (tested in a mixture with another compound), the inhibition is 65.3%. Next, `Cc1cc(C2CCCCC2)n(O)c(=O)c1`: -2.62% (inactive). Next, `NC(=NCCCCCCN=C(N)/N=C(\N)Nc1ccc(Cl)cc1)/N=C(\N)Nc1ccc(Cl)cc1`: 29.9% (inactive); `CCCCCCCCCCCCCCCC[n+]1ccccc1`: -110% (inactive); `CC(C)(C)C1CCC(CC2=C(O)c3ccccc3C(=O)C2=O)CC1` (stereo not drawn): -2.09% (inactive).

Regarding `COC(=O)Nc1nc2ccc(Sc3ccccc3)cc2[nH]1`, the inhibition is -5.93% (inactive). Next, `Nc1ccc2cc3ccc(N)cc3nc2c1`: -285% (inactive); `Oc1c(Cl)cc(Cl)cc1Sc1cc(Cl)cc(Cl)c1O`: 40.3% (inactive). Next, `COc1cc(-c2ccc(=O)[nH]n2)ccc1OC(F)F`: 3.71% (inactive); `Cc1cc(O)c2ccccc2c1O`: 39.1% (inactive). Next, `Cc1ccccc1C(=O)Nc1ccc(C(=O)N2CCCC(N(C)C)c3ccccc32)cc1` (stereo not drawn): -7.07% (inactive); `Cc1cc(=O)c2c(O)c3c(O)cc(=O)c4c3c3c(cc(O)c1c23)C(C)(C)C=4O`: 12.5% (inactive).

As for `O=C(CCCCCCC(=O)Nc1ccccc1)NO`, the inhibition was 4.26% (inactive). Next, `CCCSc1ccc2nc(NC(=O)OC)[nH]c2c1`: -2.9% (inactive); `CC(=O)Oc1ccc(C2(c3ccc(OC(C)=O)cc3)Oc3ccccc3NC2=O)cc1`: -1.96% (inactive); `COc1ccc(-c2ccc3cc(C(=O)O)ccc3c2)cc1C12CC3CC(CC(C3)C1)C2`: 29% (inactive).

Consider `COC(=O)Nc1nc2ccc(C(=O)c3ccccc3)cc2[nH]1`, for which the inhibition was -18.7% (inactive). Next, `CSc1ccc2c(c1)C(N1CCN(C)CC1)Cc1ccccc1S2` (stereo not drawn): 6.51% (inactive); `Cc1ccc2nc(N)[nH]c(=O)c2c1Sc1ccncc1`: 50.1%. Then `CCCN(CCC)C(=O)C(CCC(=O)OCCCN1CCN(CCOC(=O)Cc2c(C)n(C(=O)c3ccc(Cl)cc3)c3ccc(OC)cc23)CC1)NC(=O)c1ccccc1` (stereo not drawn), with -0.47% (inactive); and `COC(=O)Nc1nc2ccc(S(=O)c3ccccc3)cc2[nH]1` (stereo not drawn), with -8.8% (inactive); and `CNC(=O)c1cc(Oc2ccc(NC(=O)Nc3ccc(Cl)c(C(F)(F)F)c3)cc2)ccn1`, with 64.8%.

Consider `COC(=O)[C@H]1[C@H]2C[C@@H]3c4[nH]c5cc(OC)ccc5c4CCN3C[C@H]2C[C@@H](OC(=O)/C=C/c2ccc(O)c(OC)c2)[C@@H]1OC`, for which the inhibition is 7.92% (inactive). As to `CCc1nc(N)nc(N)c1-c1ccc(Cl)cc1`, the inhibition was 11.7% (inactive).

Take `C=C(C)[C@H]1Cc2c(ccc3c2O[C@@H]2COc4cc(OC)c(OC)cc4[C@@H]2C3=O)O1`: the inhibition is -6.37% (inactive).

Take `O=c1[nH]c(=O)n([C@H]2C[C@H](O)[C@@H](CO)O2)cc1C(F)(F)F`: the inhibition is 5.58% (inactive). Then `Cc1cc(C)c(/C=C2\C(=O)Nc3ccccc32)[nH]1`, with 45.3% (inactive); and `Cc1nc(N)nc(N)c1-c1ccc(Cl)c(Cl)c1`, with 5.16% (inactive).
